Values quoted from earlier work as cited in US7850997B2, “Dietary compositions and methods of enhancing lean body mass and exercise performance” (priority 2007, dated 2010).

Assays:
[1] = compared with placebo; patients
[2] = oral arginine 0.5 g/10 kg for one week, versus placebo; primary or precapillary secondary pulmonary hypertension
[3] = after arginine 6 g/day for 10 days; 7 healthy males
[4] = 6 g oral L-arginine for 3 days vs placebo; 25 patients with stable coronary artery disease
[5] = oral L-arginine 6 g for 3 days; 22 patients with stable angina pectoris and healed myocardial infarction

N=C(N)NCCCC(N)C(=O)O (stereo not shown) [arginine, 2-amino-5-guanidinovaleric acid]
forearm blood flow during forearm exercise [1]: significantly increased
mean pulmonary arterial pressure [2]: significantly decreased
pulmonary vascular resistance [2]: significantly decreased
flow-mediated vasodilation (FMV) after 4 and 6 h after oral fat load [3]: normalized
flow-mediated vasodilation (FMV) at 2 h after oral fat load [3]: significantly decreased
exercise duration [4]: significantly increased
exercise capacity [5]: increased
